Data set [1] has as its target T1, LDHA (Homo sapiens, UniProt P00338).
T1 construct: a complex of FLCN-10 peptide with full-length recombinant LDHA; 6xHis (leader of vector pRSET-A) (N); made in house; host or cells: E. coli BL21 (DE3)
Nature of the data set: LDH activity assay (MAK066) with recombinant LDHA. Conditions: 25 ng recombinant LDHA pre-incubated with peptide 30 min on ice. The data set is classed as biochemical.
Method: Lactate dehydrogenase activity was measured according to the manufacturer's protocol (MAK066, Sigma-Aldrich). […] Samples were then transferred to an optically clear 96-well plate and substrate mix was added to each well. Absorbance was measured at 450 nm every five minutes until saturation. […] All experiments were carried out in triplicate.
Lactate dehydrogenase activity was measured according to the manufacturer's protocol (MAK066, Sigma-Aldrich). […] Samples were then transferred to an optically clear 96-well plate and substrate mix was added to each well. Absorbance was measured at 450 nm every five min until saturation.

Data set [2] deals with renal tumor tissue and adjacent normal kidney-tissue from a BHD patient. In words: Ex vivo peptide treatment of BHD patient renal tumor and adjacent normal tissue. Further details: species or system human. The conditions noted are these: FLCN-10-Rhodamine B, 2 h at 37° C., fluorescence microscopy. As to the method:
Tumor tissues from the BHD patient were obtained with written informed consent from the Department of Urology at SUNY (State University of New York) Upstate Medical University. At the time of partial nephrectomy, which was done with <15 min of renal ischemia, BHD tumors were dissected into 3-5 mm^3 pieces and cultured on a presoaked gelatin sponge (Johnson & Johnson) in 24-well plates containing 2 ml RPMI-1640 with 10% FBS, antibiotic/antimycotic solution. Tissues were cultured at 37° C. for 16 hr, followed by the addition of the indicated concentrations of FLCN-10-Rhod-B and further incubation at 37° C. for 2 hr.
Tumor and adjacent normal renal tissue from the BHD patient were obtained with written informed consent on an Institutional Review Board (IRB)-approved protocol from the Department of Urology at SUNY Upstate Medical University. At the time of partial nephrectomy, which was done with <15 min of renal ischemia, BHD tumors were dissected into 3- to 5-mm^3 pieces and cultured on a presoaked gelatin sponge (Johnson & Johnson) in 24-well plates containing 2 ml RPMI-1640 with 10% FBS and antibiotic/antimycotic solution. Tissues were cultured at 37° C. for 16 h, followed by the addition of the indicated concentrations of FLCN-10-Rhod-B and further incubation at 37° C. for 2 h. […]

A further data set has as its target T2, LDHA (pTyr10-LDHA) (Homo sapiens, UniProt P00338).
T2 construct: a panel of cancer cell lines were immunoblotted to observe levels of endogenous FLCN and pTyr10-LDHA; endogenous in cells; host or cells: Caki-1, HEK293, PC3, A549 and other human cancer cell lines
In words: LDHA activity in cells by pTyr10-LDHA immunoblot. The data set is classed as cell-based. The text has this:
The supernatant was then transferred to a fresh microtube.
For orientation: In western blotting, separated proteins are transferred to a membrane and probed.

The next data set deals with ccRCC cell lines. Nature of the data set: Apoptosis / cell death in ccRCC renal cell lines (cleaved PARP/caspase-3 immunoblot, Annexin V/propidium iodide flow cytometry). The data set is classed as cell-based, human. Conditions: Caki-1 cells, Western blot, normalized for amount of peptide residing in cells.
Data set [3] concerns the target T1, LDHA. Nature of the data set: Fluorescence anisotropy binding of Rhodamine-B-labeled FLCN peptides to recombinant LDHA. As to the method: LDHA at the indicated concentrations was incubated on ice in 50 mM Tris pH 7.2, 150 mM NaCl, 1 mM TCEP, 4 mM MgCl2 with […] labelled FLCN peptide for 30 min.
Fluorescence anisotropy was measured using a SpectraMax 3 equipped with rhodamine fluorescence polarization module (lex\lem.535 nm/595 nm). Curve fitting was done in KaleidaGraph 4.0.
LDHA at the indicated concentrations was incubated on ice in 50 mM Tris pH 7.2, 150 mM NaCl, 1 mM TCEP, 4 mM MgCl2 with […] Rhodamine-B-labeled FLCN peptide for 30 min. Fluorescence anisotropy was measured in triplicate using a SpectraMax i3 equipped with rhodamine fluorescence polarization module (lex\lem.535 nm/595 nm). Curve fitting was done in KaleidaGraph 4.0.

The values that follow come from patent US11725026B2, “Compositions and methods for inhibiting lactate dehydrogenase a activity” (Research Foundation for SUNY, priority 2019, dated 2023).

Where a SMILES comes first, the peptide text is derived from it. Where no end group is shown, it is not given here.

For `CSCC[C@H](NC(=O)[C@H](CCCNC(=N)N)NC(=O)[C@H](CCC(N)=O)NC(=O)[C@H](C)N)C(=O)N[C@@H](CC(N)=O)C(=O)N[C@H](C(=O)N[C@@H](C)C(=O)N[C@@H](Cc1ccccc1)C(=O)N[C@H](C(=O)N1CCC[C@H]1C(=O)O)[C@@H](C)O)[C@@H](C)O` [FLCN-10] (H-AQRMNTAFTP-OH; N-terminus and C-terminus assumed), the “inhibitory effect on LDHA activity” value at LDHA [1] came out at 70%. The “tissue penetration ex vivo” value in data set [2] was “able to penetrate both normal and tumor tissues”.
As for “PEGylated FLCN-10: FLCN-10 peptide modified by PEGylation to protect from cellular proteases (AQRMNTAFTP; also: PEGylated, site not given here)”, in the data set with LDHA (pTyr10-LDHA), the “activity against LDHA in Caki-1 cells” value is “effective at inhibiting LDHA activity”. The “pro-apoptotic activity of modified FLCN-10 peptides” value in the data set with ccRCC cell lines is “minimal pro-apoptotic activity”.
On to “QRMNTAFTPFL [FLCN-1, peptide derived from aa220-230 of FLCN]”, for which the “binding to LDHA (in words)” value in the data set with LDHA [3] (determined by anisotropy) was “bound tightly to LDHA”. Further, the “Ka of LDHA with FLCN peptide” value in the data set with LDHA [3] (fluorescence polarization anisotropy, n=3) is given as “≈ 1×10^7”.
